# Results published in patent US12642827B2, “Lactic acid bacteria strain—antibacterial peptides produced by said strain and related pharmaceutical compositions” (UNIVERSITE DE LILLE, priority 2019, dated 2026).
# Ends that are not written are not given here. His‑tag = His-Tag tail of six histidine residues (6 His), attached at the N- or C-terminal end
# How the values were obtained:
# Format in all cases: cell-based, Escherichia coli
# [1] = tested on: E. coli colistin-resistant strain; test: Anti-E. coli activity (AU/mL) of recombinant peptides; conditions: purified on Ni-NTA, adjusted to pH 5
# From the text: Each of the orf coding for putative bacteriocin was cloned in expression vector suitable for E. coli competent cells. Each orf was cloned under the control of the inducible T7 promoter and with His-Tag (6 His) tail positioned on the N-terminal or C-terminal part. The cloning of each orf at the N- or C-terminal position of Histag tail, has led to 10 recombinant plasm ids. Each of these recombinant plasm ids was introduced in E. coli BL21 (DE3)(plysS) competent cells. The successfully transformed E. coli was regenerated in SOC medium for 1 h at 37° C. with shaking at 160 rpm, and then selected on Luria-Bertani (LB) agar medium supplemented with ampicillin (100 μg mL^−1) and chloramphenicol (30 μg mL^−1) (Sigma Aldrich). After overnight incubation at 37° C., the obtained colonies on LB agar medium with antibiotics were checked for the presence of the recombined plasmid containing the appropriate cloned orfs by PCR using specific primers.
# Overnight culture of E. coli strain BL21(DE3)(pLysS), harboring each recombinant plasmid, was diluted to 1% (vol/vol) in LB medium containing ampicillin (100 μg mL^−1) and chloramphenicol (30 μg mL^−1) and then grown aerobically at 37° C. […]
# Then the obtained solution was adjusted to pH 5 using acetic acid and then its activity (AU/mL) against E. coli colistin-resistant strain was evaluated, as described previously.
# panel of E. coli strains = test: Anti-E. coli activity / MIC over a panel of strains
# E. coli 289 = conditions: E. coli 289, mcr-1−
# Procedure: (§1) The cell-free supernatant (CFS) was obtained by centrifugation (8 000 g, 10 min, 4° C.) of a culture of L. paracasei I-CNCM 5369 grown without shaking on MRS medium for 24 to 30 h at 37° C. Then 40 mL of the obtained CFS was loaded onto a reversed phase C18 (Agilent, USA) cartridge. Afterwards, a washing step was performed with 10% (v/v) acetonitrile followed-up by an elution with 40 mL of 20% (v/v) acetonitrile solution in order to eluate the active fraction. The active fraction was dried using SpeedVac and resuspended in 1:10 of the initial volume of ultrapure water. The resulting active solution was designed as fraction E20 (or E20% particularly in the figures) throughout the text. Fraction E20 was stored at 4° C. and therefore used for the different tests to characterize the anti-E. coli activity. Noteworthy, E20 fraction was tested against a panel of E. coli strains with different genotypes to examine their sensibility to the putative bacteriocin(s) contained in this fraction. This assessment was performed by the determination of the minimal inhibitory concentration (MIC) values, which were ranging from 250 to 2 000 μg/mL (Table 5).
# (§2) E20 fraction prepared from L. paracasei I-CNCM 5369, was half-diluted and mixed with colistin at a concentration ranging from 1 to 128 μg/mL in BHI medium. The resulting formulations were tested against E. coli 184, carrying the mcr-1 gene, as well as on other E. coli strains (Table 6). After an overnight period of incubation at 37° C., the growth of E. coli strains was checked by spectrophotometry at OD600 nm, and new MIC values of colistin/E20 were determined. […] Indeed, the decreased from 8 to 2 μg/mL in the presence of E20 fraction. This synergetic interaction was as well observed for other E. coli strains, where the MIC values decreased twice for E. coli E4A4WT, 4 times folds for E. coli 289 and 8 times for E. coli E4A4 variant. […] The weight composition of the mixture of E20 fraction+colistin is indicated in brackets next to the MIC value. The first value refers to the amount of colistin in μg/mL, whereas the second in brackets refers to the amount of E20 fraction in μg/mL).
# (§3) The alginate nanoparticles (Alg NPs) were obtained by a top down process (ball milling) and used at a concentration of 500 μg/mL. The E20 fraction was mixed at a concentration of 60 μg/mL with this suspension, which corresponds to 12% of the used Alg NPs concentration. […] To gain insights on the effects of alginate nanoparticles, colistin was also loaded on Alg NPs and the resulting formulation (colistin-Alg NPs) was tested against same target E. coli strains.
# E. coli SBS36 = conditions: E. coli SBS36, truncated LPS
# Procedure: as §1, §2, §3
# E. coli 184 = conditions: E. coli 184, mcr-1+
# Procedure: as §1, §2, §3
# E. coli TOP10 = conditions: E. coli TOP10, LPS-
# Procedure: as §1, §2, §3
# E. coli ATCC8739 [2] = test: MIC determination; conditions: E. coli ATCC8739, reference strain
# Procedure: as §1
# as §2, with “The first value refers to the amount of colistin in μg/mL, whereas the second in brackets refers to the amount of E20 fraction in μg/mL).” left out
# E. coli E4A4 WT = test: MIC determination; conditions: environmental strain
# Procedure: as §1
# as §2, with “The first value refers to the amount of colistin in μg/mL, whereas the second in brackets refers to the amount of E20 fraction in μg/mL).” left out
# E. coli E4A4 variant = test: MIC determination; conditions: colistin unsensibilised
# Procedure: as §1
# as §2, with “The first value refers to the amount of colistin in μg/mL, whereas the second in brackets refers to the amount of E20 fraction in μg/mL).” left out
# E. coli ATCC8739 [3] = test: Killing curves; conditions: BHI, inhibitory concentration (colistin 16 μg/mL), pH 4.5-5, 37° C.
# Procedure: The killing curves were determined on three E. coli strains, because of for their resistance or sensitivity to colistin. These strains were E. coli 184 (mcr-1), E. coli E4A4 variant with resistance to colistin, and E. coli ATCC8739 colistin-sensitive reference strain (Table 5). These strains were inoculated in BHI (Brain Heart Infusion) medium containing the semi-purified fraction of E20 fraction at inhibitory concentration. An untreated E. coli ATCC8739 control treated with inhibitory concentration of colistin (16 μg/mL) was also tested. The pH of the medium was adjusted to 4.5-5 in the various samples, which were incubated at 37° C. for 8 h. At regular intervals of time, samples were taken to determine the number of colony forming units per mL (CFU/mL) under each tested condition.
# As depicted in the FIG. 2, the number of CFU/mL of the strains treated with E20 fraction decreased rapidly with no visible growth (0 CFU/mL), after 1 h of incubation. […] A similar data was obtained after 1 h of incubation for E. coli ATCC8739 treated with colistin (16 μg/mL).
# E. coli CIP7628 = test: MIC determination; conditions: E. coli CIP7628, reference strain
# Procedure: as §1
# The alginate nanoparticles (Alg NPs) were obtained by a top down process (ball milling) and used at a concentration of 500 μg/mL. […]
Substance,anti E. coli activity [1],colistin MIC of E. coli 184 compared to reference strain E. coli ATCC8739 (panel of E. coli strains),MIC (E. coli 289),MIC (E. coli SBS36),MIC (E. coli 184),MIC (E. coli TOP10),MIC (E. coli ATCC8739 [2]),MIC (E. coli E4A4 WT),MIC (E. coli E4A4 variant),incubation time to no visible growth (0 CFU/mL) (E. coli ATCC8739 [3]),MIC (E. coli CIP7628)
Orf10 HisTag C-ter: recombinant Orf010 peptide with C-terminal His-Tag expressed in E. coli BL21 (DE3) (pLysS) (MYTMTNLKDKELSQITGGFAFVIPVAAILGFLASDAWSHADEIAGGATSGWSLADKSHSL-{His‑tag}; not fully specified; listed as Lactobacillus paracasei),200 AU/mL,,,,,,,,,,
colistin,,four folds higher,8 µg/mL,2 µg/mL,8 µg/mL,1 µg/mL,2 µg/mL,2 µg/mL,16 µg/mL,1 h,1 µg/mL
